From PMC10824666 (Nature Cancer, 2023) come the findings set out here.

What all share (test): biochemical
Set-up in all cases: Eurofins DiscoverX kinase panel, competitive binding assay at 1 uM, percent of DMSO control
What all share (conditions): competitive binding, percent of DMSO control

One experiment has as its target T1, p38 γ (Homo sapiens, UniProt P53778).
T1 construct: gene MAPK12
T1 sequence (P53778 1-367): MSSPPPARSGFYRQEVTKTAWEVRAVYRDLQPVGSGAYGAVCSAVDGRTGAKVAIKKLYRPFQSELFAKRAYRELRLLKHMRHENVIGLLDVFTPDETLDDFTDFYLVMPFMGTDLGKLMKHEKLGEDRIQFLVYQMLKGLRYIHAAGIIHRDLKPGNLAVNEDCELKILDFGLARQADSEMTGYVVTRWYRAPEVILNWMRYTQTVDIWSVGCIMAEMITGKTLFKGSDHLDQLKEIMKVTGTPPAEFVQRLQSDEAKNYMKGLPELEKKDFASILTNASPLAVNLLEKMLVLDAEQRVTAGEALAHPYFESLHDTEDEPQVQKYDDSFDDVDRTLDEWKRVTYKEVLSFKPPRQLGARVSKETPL
In short, it runs like this:
(§1)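 Competitive binding assay across a 96-kinase panel with KIF18A compounds at 1 µM; values given as percentage of control (POC), single experiment.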

The target in the next experiment is EGFR (Homo sapiens, UniProt P00533). In short, it runs like this: as §1
A further experiment deals with T2, TIE2 (Homo sapiens, UniProt Q02763).
T2 construct: gene TEK
Summed up: as §1

For the next experiment, the target named is T3, TBK1 (Homo sapiens, UniProt Q9UHD2).
T3 sequence (Q9UHD2 1-729): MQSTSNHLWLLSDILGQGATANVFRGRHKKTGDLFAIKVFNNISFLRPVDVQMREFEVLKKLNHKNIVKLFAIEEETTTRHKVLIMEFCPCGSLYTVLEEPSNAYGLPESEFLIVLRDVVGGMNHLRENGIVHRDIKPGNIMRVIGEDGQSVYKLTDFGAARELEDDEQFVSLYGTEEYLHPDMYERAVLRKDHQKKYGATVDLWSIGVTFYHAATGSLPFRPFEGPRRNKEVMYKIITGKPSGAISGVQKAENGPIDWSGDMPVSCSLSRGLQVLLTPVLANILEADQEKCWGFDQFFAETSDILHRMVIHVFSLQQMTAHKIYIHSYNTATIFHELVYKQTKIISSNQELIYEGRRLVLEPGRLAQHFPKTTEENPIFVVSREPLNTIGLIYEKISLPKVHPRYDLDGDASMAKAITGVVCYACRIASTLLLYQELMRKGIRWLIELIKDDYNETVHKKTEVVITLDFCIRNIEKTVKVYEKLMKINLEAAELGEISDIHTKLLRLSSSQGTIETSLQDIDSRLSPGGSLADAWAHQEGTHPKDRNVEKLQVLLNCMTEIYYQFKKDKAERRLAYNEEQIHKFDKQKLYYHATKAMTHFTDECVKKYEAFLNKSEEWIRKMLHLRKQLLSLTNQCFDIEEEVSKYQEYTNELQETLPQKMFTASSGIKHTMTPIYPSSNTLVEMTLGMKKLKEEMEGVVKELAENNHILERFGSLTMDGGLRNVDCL
In short, it runs like this: as §1

In another experiment the target is CDK4 (Homo sapiens, UniProt P11802). Summed up:
as §1

The next experiment deals with TGFBR2 (Homo sapiens, UniProt P37173). In short, it runs like this:
as §1

[1] abbreviates: read-out: Kinome Profiling performed by Eurofins DiscoverX / AM-0277, 1.0 µM / POC.
[2] abbreviates: read-out: Kinome Profiling performed by Eurofins DiscoverX / AM-1882, 1.0 µM / POC.
[3] abbreviates: read-out: Kinome Profiling performed by Eurofins DiscoverX / AM-5308, 1.0 µM / POC.

The structures appear in SMILES notation. Like-named read-outs stand apart in the source and are kept apart here.

EGFR, sequence (P00533 whole entry): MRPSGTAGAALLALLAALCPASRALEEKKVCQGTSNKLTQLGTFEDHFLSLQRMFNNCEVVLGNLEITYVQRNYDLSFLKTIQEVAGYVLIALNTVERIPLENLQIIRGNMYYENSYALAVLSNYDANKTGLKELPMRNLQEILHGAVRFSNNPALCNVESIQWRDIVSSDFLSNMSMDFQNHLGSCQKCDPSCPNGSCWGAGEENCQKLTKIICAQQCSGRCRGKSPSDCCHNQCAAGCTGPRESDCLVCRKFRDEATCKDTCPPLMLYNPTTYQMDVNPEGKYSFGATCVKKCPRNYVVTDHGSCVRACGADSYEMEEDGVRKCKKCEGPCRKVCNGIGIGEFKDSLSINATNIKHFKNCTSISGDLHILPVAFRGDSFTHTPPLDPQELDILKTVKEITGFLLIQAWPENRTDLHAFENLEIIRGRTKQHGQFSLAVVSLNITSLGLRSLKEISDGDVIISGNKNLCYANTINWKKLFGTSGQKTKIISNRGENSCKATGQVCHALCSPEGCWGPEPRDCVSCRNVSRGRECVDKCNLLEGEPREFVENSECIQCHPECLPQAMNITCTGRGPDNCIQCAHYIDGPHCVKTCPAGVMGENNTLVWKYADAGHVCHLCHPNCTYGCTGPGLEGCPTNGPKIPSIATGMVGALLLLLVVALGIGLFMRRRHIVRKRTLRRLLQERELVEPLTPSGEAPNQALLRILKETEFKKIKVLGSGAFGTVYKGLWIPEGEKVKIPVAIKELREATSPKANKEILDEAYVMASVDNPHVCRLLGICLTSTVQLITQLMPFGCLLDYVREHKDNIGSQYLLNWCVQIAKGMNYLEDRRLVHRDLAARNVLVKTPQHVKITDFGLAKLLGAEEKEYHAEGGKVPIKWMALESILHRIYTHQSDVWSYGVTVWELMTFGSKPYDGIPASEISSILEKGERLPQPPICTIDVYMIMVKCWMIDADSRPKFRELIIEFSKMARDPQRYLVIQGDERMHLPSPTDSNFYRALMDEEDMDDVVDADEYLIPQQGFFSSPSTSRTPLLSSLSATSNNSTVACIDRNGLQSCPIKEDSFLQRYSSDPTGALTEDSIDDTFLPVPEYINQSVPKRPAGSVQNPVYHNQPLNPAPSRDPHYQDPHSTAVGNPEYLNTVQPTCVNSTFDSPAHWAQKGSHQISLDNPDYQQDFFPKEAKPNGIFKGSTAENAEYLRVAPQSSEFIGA
T2 sequence (Q02763 whole entry): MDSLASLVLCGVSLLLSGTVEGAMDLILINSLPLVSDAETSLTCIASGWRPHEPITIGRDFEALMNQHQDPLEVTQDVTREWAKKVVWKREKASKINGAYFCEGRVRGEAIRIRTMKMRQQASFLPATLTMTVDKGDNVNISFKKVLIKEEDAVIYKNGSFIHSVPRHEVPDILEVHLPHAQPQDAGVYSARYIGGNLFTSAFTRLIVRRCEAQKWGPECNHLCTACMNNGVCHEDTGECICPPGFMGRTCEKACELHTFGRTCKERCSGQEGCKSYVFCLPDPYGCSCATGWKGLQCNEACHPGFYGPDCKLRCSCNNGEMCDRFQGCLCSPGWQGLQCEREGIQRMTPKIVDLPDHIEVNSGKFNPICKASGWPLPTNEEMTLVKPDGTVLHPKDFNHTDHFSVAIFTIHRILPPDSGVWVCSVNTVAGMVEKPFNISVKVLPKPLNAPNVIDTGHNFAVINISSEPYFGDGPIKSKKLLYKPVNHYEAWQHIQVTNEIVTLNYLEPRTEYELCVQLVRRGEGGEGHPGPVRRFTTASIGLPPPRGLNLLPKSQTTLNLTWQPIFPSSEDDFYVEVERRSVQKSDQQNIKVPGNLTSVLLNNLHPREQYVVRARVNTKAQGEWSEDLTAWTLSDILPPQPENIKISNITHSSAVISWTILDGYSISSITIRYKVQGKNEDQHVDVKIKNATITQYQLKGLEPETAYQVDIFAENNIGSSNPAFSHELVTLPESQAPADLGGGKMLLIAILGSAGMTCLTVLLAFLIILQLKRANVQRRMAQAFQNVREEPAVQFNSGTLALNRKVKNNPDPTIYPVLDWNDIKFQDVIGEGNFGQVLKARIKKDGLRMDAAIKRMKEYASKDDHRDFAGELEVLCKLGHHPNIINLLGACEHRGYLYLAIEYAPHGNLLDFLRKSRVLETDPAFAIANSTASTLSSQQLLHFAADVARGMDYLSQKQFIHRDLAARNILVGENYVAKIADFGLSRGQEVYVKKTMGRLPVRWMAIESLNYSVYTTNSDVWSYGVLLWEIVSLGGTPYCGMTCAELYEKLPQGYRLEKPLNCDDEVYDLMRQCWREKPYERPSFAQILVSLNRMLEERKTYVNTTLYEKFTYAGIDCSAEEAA
TGFBR2, sequence (P37173 whole entry): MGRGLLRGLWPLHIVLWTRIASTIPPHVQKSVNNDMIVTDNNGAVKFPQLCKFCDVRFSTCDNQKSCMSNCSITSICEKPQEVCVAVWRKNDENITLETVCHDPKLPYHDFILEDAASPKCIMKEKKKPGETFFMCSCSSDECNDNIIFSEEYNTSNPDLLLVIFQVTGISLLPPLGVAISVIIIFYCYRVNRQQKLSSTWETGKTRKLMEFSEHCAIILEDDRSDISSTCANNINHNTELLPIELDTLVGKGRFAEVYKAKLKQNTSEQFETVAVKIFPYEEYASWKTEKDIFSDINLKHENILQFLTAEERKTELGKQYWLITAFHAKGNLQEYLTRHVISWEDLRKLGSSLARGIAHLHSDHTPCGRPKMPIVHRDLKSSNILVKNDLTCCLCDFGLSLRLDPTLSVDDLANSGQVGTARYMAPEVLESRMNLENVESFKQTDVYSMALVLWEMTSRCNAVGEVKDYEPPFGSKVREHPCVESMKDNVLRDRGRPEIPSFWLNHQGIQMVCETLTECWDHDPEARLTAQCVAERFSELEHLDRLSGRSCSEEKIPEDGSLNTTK
CDK4, sequence (P11802 whole entry): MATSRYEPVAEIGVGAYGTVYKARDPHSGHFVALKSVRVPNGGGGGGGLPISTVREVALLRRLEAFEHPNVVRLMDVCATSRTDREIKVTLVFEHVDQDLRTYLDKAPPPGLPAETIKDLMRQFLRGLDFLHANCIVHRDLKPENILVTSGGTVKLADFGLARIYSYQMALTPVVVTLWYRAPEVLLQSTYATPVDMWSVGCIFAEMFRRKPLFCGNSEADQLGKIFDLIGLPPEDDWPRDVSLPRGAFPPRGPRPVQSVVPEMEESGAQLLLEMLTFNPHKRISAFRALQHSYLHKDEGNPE

In the case of `CC(C)(CO)Nc1ccc(C(=O)Nc2cccc(S(=O)(=O)C3CCCC3)c2)c(N2CCC3(CC2)CC3)n1` [AM-0277], the remaining activity at 1 µM on p38 γ (setting [1]) is 100%; at EGFR (setting [1]), 93%; at TIE2 (setting [1]), 77%; on TBK1 (setting [1]), 87%; on CDK4 (setting [1]), 100%; on TGFBR2 (setting [1]), 75%.

With `CC(C)(C)NS(=O)(=O)c1cccc(NC(=O)c2ccc(S(=O)(=O)NC(C)(C)C)cc2N2CCC3(CC2)CC3)c1` [AM-1882], the remaining activity at 1 µM on p38 γ (setting [2]) came to 100%; on EGFR (setting [2]), 100%; at TIE2 (setting [2]), 94.5%; at TBK1 (setting [2]) it was 82%; at CDK4 (setting [2]), 64%; on TGFBR2 (setting [2]) it was 99.5%.

For the compound `C[C@@H]1CN(c2cccc(NC(=O)c3ccc(NS(=O)(=O)CCO)cc3N3CCC4(CC3)CC4)n2)CCO1` [AM-5308], the remaining activity at 1 µM stood at 76.5% on p38 γ (setting [3]); 83% on EGFR (setting [3]); 90% on TIE2 (setting [3]); 100% at TBK1 (setting [3]); 98.5% on CDK4 (setting [3]); 100% at TGFBR2 (setting [3]).
